Laboratory results published in patent US8753666B2, “Punctal plugs and methods of delivering therapeutic agents” (Alcon Research, Ltd., priority 2007, dated 2014).

Assay: Release of AL-6598 from silicone dies of three sizes in PBS at 37° C.
Assay type: physicochemical
Settings: silicone die containing 10% AL-6598, 10x10x1 mm, 10x5x1 mm and 5x5x1 mm, FIG. 8
Description: To study the effect of surface area on the release of prostaglandin from a silicone matrix, prostaglandin release from silicone dies of three different sizes was measured. The largest silicone die measured 10 mm×10 mm×1 mm. A ½ size device (10 mm×5 mm×1 mm) and a ¼ size device (5 mm×5 mm×1 mm) were also used in this study. Each silicone die contained 10% AL-6598, which is a DP class prostaglandin analogue. The silicone die were placed in phosphate buffered saline (PBS) at 37° C. and the amount of AL-6598 released was measured.

CC(C)OC(=O)COC/C=C\C[C@@H]1[C@@H](CC[C@@H](O)C2CCCCC2)[C@H](O)C[C@H]1Cl [AL-6598]
release of AL-6598 from silicone die (effect of surface area): dependent on the size of the silicone die with the larger surface area resulting in the more rapid drug release
